The structures appear in SMILES notation.

The test addresses anthranilate synthase TrpE (Rv1609) (Mycobacterium tuberculosis, UniProt P9WFX3). The test is described as follows: biochemical.

Chain of anthranilate synthase TrpE (Rv1609) (P9WFX3 whole entry): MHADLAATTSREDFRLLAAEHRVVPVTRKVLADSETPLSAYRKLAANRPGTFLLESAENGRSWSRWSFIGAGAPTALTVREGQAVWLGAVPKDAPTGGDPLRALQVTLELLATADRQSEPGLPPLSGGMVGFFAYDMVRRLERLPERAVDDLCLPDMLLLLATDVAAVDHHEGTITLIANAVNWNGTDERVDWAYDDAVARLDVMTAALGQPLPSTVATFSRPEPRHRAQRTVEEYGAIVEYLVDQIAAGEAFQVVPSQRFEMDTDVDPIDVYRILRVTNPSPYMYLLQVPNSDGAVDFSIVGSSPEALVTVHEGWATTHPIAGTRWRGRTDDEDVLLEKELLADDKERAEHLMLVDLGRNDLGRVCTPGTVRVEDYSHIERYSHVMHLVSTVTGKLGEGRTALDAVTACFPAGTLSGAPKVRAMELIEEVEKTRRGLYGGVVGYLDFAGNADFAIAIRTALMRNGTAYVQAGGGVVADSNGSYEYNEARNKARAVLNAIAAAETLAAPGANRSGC

In turn, `N[C@@H](Cc1c[nH]c2ccc(F)cc12)C(=O)O` [F-Trp, 5-fluoro-L-tryptophan] registered an IC50 of 4.1 µM. That is a single-digit micromolar value.

In general, IC50 refers to the point on the concentration scale where inhibition reaches its midpoint. A higher IC50 goes with a need for much substance.

The record behind these values is publication PMC6437058 (mBio, 2019).
